In brackets after ≈: the same amount, converted by molar mass. Activity calls are given as the source filed them. The calls are words filed in the database; no cut-off is given here.
Columns and labels:
Reticulitermes speratus [1] = experiment: Insecticidal activity against Reticulitermes speratus assessed as mortality at 0.01 g/m'2 at 24 hr relative to control; format: functional
Dermatophagoides farinae [2] = experiment: Acaricidal activity against Dermatophagoides farinae assessed as mortality at 1 g/m'2 after 24 hr relative to control; format: functional
Dermatophagoides farinae [3] = experiment: Acaricidal activity against Dermatophagoides farinae assessed as mortality at 0.01 g/m'2 after 24 hr relative to control; format: functional
Legionella pneumophila [4] = experiment: Antibacterial activity against Legionella pneumophila SG 1 after 7 days by agar dilution method; format: functional; settings: SG 1, 168 h
Dermatophagoides farinae [5] = experiment: Acaricidal activity against Dermatophagoides farinae assessed as mortality at 0.5 g/m'2 after 24 hr relative to control; format: functional
[6] = Toxicity against ip dosed Mus musculus Slc:ddY (mouse) after 8 days; format: organism-based; settings: in vivo
Reticulitermes speratus [7] = experiment: Insecticidal activity against Reticulitermes speratus assessed as mortality at 0.05 g/m'2 at 48 hr relative to control; format: functional
Reticulitermes speratus [8] = experiment: Insecticidal activity against Reticulitermes speratus assessed as mortality at 0.03 g/m'2 at 24 hr relative to control; format: functional
Legionella pneumophila [9] = experiment: Antibacterial activity against Legionella pneumophila SG 3 after 7 days by agar dilution method; format: functional; settings: SG 3, 168 h
Thanatephorus cucumeris = experiment: Antifungal activity against Thanatephorus cucumeris IFO 30455 after 15 days by agar dilution method; format: functional; settings: IFO 30455, 360 h
P388 [10] = experiment: Growth inhibition of Mus musculus (mouse) P388 cells at >1.25 ug/ml after 48 hr by MTT assay; format: functional
Dermatophagoides farinae [11] = experiment: Acaricidal activity against Dermatophagoides farinae after 24 hr; format: functional
Pythium aphanidermatum = experiment: Antifungal activity against Pythium aphanidermatum IFO 32440 after 15 days by agar dilution method; format: functional; settings: IFO 32440, 360 h
P388 [12] = experiment: Growth inhibition of Mus musculus (mouse) P388 cells at 0.63 ug/ml after 24 hr by MTT assay; format: functional; settings: P388, 24 h, read-out: GI
Reticulitermes speratus [13] = experiment: Insecticidal activity against Reticulitermes speratus assessed as mortality at 0.1 g/m'2 at 24 hr relative to control; format: functional
P388 [14] = experiment: Growth inhibition of Mus musculus (mouse) P388 cells after 24 to 48 hr by MTT assay; format: functional, cell-based
Reticulitermes speratus [15] = experiment: Insecticidal activity against Reticulitermes speratus assessed as mortality at 0.05 g/m'2 at 24 hr relative to control; format: functional
Reticulitermes speratus [16] = experiment: Insecticidal activity against Reticulitermes speratus assessed as mortality at 0.01 g/m'2 at 48 hr relative to control; format: functional
Botrytis cinerea = experiment: Antifungal activity against Botryotinia fuckeliana IFO 30915 after 15 days by agar dilution method; format: functional; settings: IFO 30915, 360 h
Tyrophagus putrescentiae = experiment: Acaricidal activity against Tyrophagus putrescentiae at high concentration; format: functional, organism-based
Reticulitermes speratus [17] = experiment: Insecticidal activity against Reticulitermes speratus assessed as mortality at 0.03 g/m'2 at 48 hr relative to control; format: functional
Reticulitermes speratus [18] = experiment: Insecticidal activity against Reticulitermes speratus assessed as mortality at 0.02 g/m'2 at 24 hr relative to control; format: functional
P388 [19] = experiment: Growth inhibition of Mus musculus (mouse) P388 cells at >1.25 ug/ml after 24 hr by MTT assay; format: functional
Reticulitermes speratus [20] = experiment: Insecticidal activity against Reticulitermes speratus at 48 hr; format: functional
Phomopsis obscurans = experiment: Antifungal activity against Phomopsis obscurans MAFF 744018 after 15 days by agar dilution method; format: functional; settings: Paraphomopsis obscurans, MAFF 744018, 360 h
Reticulitermes speratus [21] = experiment: Insecticidal activity against Reticulitermes speratus assessed as mortality at 0.04 g/m'2 at 24 hr relative to control; format: functional
Colletotrichum lagenaria = experiment: Antifungal activity against Colletotrichum lagenaria after 15 days by agar dilution method; format: functional; settings: 360 h
Fusarium solani = experiment: Antifungal activity against Fusarium solani IFO 9955 after 15 days by agar dilution method; format: functional; settings: IFO 9955, 360 h
Reticulitermes speratus [22] = experiment: Insecticidal activity against Reticulitermes speratus assessed as mortality at 0.04 g/m'2 at 48 hr relative to control; format: functional
Dermatophagoides farinae [23] = experiment: Acaricidal activity against Dermatophagoides farinae assessed as mortality at 0.1 g/m'2 after 24 hr relative to control; format: functional
Reticulitermes speratus [24] = experiment: Insecticidal activity against Reticulitermes speratus assessed as mortality at 0.1 g/m'2 at 48 hr relative to control; format: functional
[25] = tested on: Colletotrichum orbiculare; experiment: Antifungal activity against Colletotrichum orbiculare MAFF 306518 after 15 days by agar dilution method; format: functional; settings: MAFF 306518, 360 h
Reticulitermes speratus [26] = experiment: Insecticidal activity against Reticulitermes speratus assessed as mortality at 0.02 g/m'2 at 48 hr relative to control; format: functional
P388 [27] = experiment: Growth inhibition of Mus musculus (mouse) P388 cells at 0.63 ug/ml after 48 hr by MTT assay; format: functional; settings: P388, 48 h, read-out: GI
Reticulitermes speratus [28] = experiment: Insecticidal activity against Reticulitermes speratus assessed as mortality at 0.00005 g/m'2 at 48 hr relative to control; format: functional
Reticulitermes speratus [29] = experiment: Insecticidal activity against Reticulitermes speratus assessed as mortality at 0.00010 g/m'2 at 24 hr relative to control; format: functional
Reticulitermes speratus [30] = experiment: Insecticidal activity against Reticulitermes speratus assessed as mortality at 0.00001 g/m'2 at 24 hr relative to control; format: functional
Reticulitermes speratus [31] = experiment: Insecticidal activity against Reticulitermes speratus assessed as mortality at 0.00025 g/m'2 at 48 hr relative to control; format: functional
Reticulitermes speratus [32] = experiment: Insecticidal activity against Reticulitermes speratus assessed as mortality at 0.00050 g/m'2 at 48 hr relative to control; format: functional
Reticulitermes speratus [33] = experiment: Insecticidal activity against Reticulitermes speratus assessed as mortality at 0.00050 g/m'2 at 24 hr relative to control; format: functional
Reticulitermes speratus [34] = experiment: Insecticidal activity against Reticulitermes speratus assessed as mortality at 0.00010 g/m'2 at 48 hr relative to control; format: functional
Reticulitermes speratus [35] = experiment: Insecticidal activity against Reticulitermes speratus assessed as mortality at 0.00025 g/m'2 at 24 hr relative to control; format: functional
Reticulitermes speratus [36] = experiment: Insecticidal activity against Reticulitermes speratus assessed as mortality at 0.00005 g/m'2 at 24 hr relative to control; format: functional
Dermatophagoides farinae [37] = experiment: Acaricidal activity against Dermatophagoides farinae assessed as mortality at 0.2 g/m'2 after 24 hr relative to control; format: functional
Dermatophagoides farinae [38] = experiment: Acaricidal activity against Dermatophagoides farinae assessed as mortality at 0.02 g/m'2 after 24 hr relative to control; format: functional
[39] = Cytotoxicity against Homo sapiens (human) KATO III; format: functional
[40] = Cytotoxicity against Mus musculus (mouse) MH134; format: functional
MDCK = experiment: Cytotoxicity against MDCK cells; format: functional; settings: Canis lupus familiaris
K562 = experiment: Cytotoxicity against Homo sapiens (human) K562; format: functional, cell-based
Colon 26 = experiment: Cytotoxicity against Mus musculus (mouse) colon 26 cells; format: functional
[41] = Cytotoxicity against Mus musculus (mouse) RL male 1; format: functional
Dermatophagoides farinae [42] = experiment: Acaricidal activity against Dermatophagoides farinae assessed as mortality at 0.05 g/m'2 after 24 hr relative to control; format: functional
HL-60 = experiment: Cytotoxicity against Homo sapiens (human) HL60; format: functional, cell-based

## CC(C)c1ccccc(=O)c1O [ALPHA-THUJAPLICIN]
Reticulitermes speratus [1]
  mortality: 0%
Dermatophagoides farinae [2]
  mortality: 69.5%
Dermatophagoides farinae [3]
  mortality: 1.1%
Legionella pneumophila [4]
  MIC: 12.5 µg/mL (≈ 76.1 µM)
Dermatophagoides farinae [5]
  mortality: 38.4%
[6]
  LD50 at 192 h: 256 mg/kg
Reticulitermes speratus [7]
  mortality: 100%
Reticulitermes speratus [8]
  mortality: 0%
Legionella pneumophila [9]
  MIC: 50 µg/mL (≈ 304 µM)
Thanatephorus cucumeris
  MIC: 12 µg/mL (≈ 73.1 µM)
P388 [10]
  growth inhibition (GI): 100%
Dermatophagoides farinae [11]
  LC50: 0.66 g/m2
Pythium aphanidermatum
  MIC: 12 µg/mL (≈ 73.1 µM)
P388 [12]
  inhibition of growth at 0.63 µg/mL: 78%
Reticulitermes speratus [13]
  mortality: 100%
P388 [14]
  growth inhibition (GI): Dose-dependent effect
Reticulitermes speratus [15]
  mortality: 93.3%
Reticulitermes speratus [16]
  mortality: 0%
Botrytis cinerea
  MIC: 25 µg/mL (≈ 152 µM)
Tyrophagus putrescentiae
  Activity: inactive
Reticulitermes speratus [17]
  mortality: 100%
Reticulitermes speratus [18]
  mortality: 0%
P388 [19]
  growth inhibition (GI): 98%
Reticulitermes speratus [20]
  LC50: 0.02 g/m2
Phomopsis obscurans
  MIC: 12 µg/mL (≈ 73.1 µM)
Reticulitermes speratus [21]
  mortality: 13.3%
Colletotrichum lagenaria
  MIC: 12 µg/mL (≈ 73.1 µM)
Fusarium solani
  MIC: 50 µg/mL (≈ 304 µM)
Reticulitermes speratus [22]
  mortality: 100%
Dermatophagoides farinae [23]
  mortality: 0%
Reticulitermes speratus [24]
  mortality: 100%
[25]
  MIC: 12 µg/mL (≈ 73.1 µM)
Reticulitermes speratus [26]
  mortality: 0%
P388 [27]
  inhibition of growth at 0.63 µg/mL: 68%

## CCOP(=S)(OCC)Oc1nc(Cl)c(Cl)cc1Cl [CHLORPYRIFOS]
Reticulitermes speratus [28]
  mortality: 40%
Reticulitermes speratus [29]
  mortality: 25%
Reticulitermes speratus [30]
  mortality: 0%
Reticulitermes speratus [20]
  LC50: 0.00016 g/m2
Reticulitermes speratus [31]
  mortality: 100%
Reticulitermes speratus [32]
  mortality: 100%
Reticulitermes speratus [33]
  mortality: 100%
Reticulitermes speratus [34]
  mortality: 75%
Reticulitermes speratus [35]
  mortality: 60%
Reticulitermes speratus [36]
  mortality: 10%

## CCN(CC)C(=O)c1cccc(C)c1 [DIETHYLTOLUAMIDE]
Dermatophagoides farinae [2]
  mortality: 45.5%
Dermatophagoides farinae [5]
  mortality: 20.5%
Dermatophagoides farinae [37]
  mortality: 7.2%
Dermatophagoides farinae [11]
  LC50: 0.79 g/m2
Dermatophagoides farinae [23]
  mortality: 0%

## CC(C)c1cccc(=O)c(O)c1 [HINOKITIOL]
Reticulitermes speratus [1]
  mortality: 0%
Dermatophagoides farinae [2]
  mortality: 100%
Dermatophagoides farinae [3]
  mortality: 0%
Legionella pneumophila [4]
  MIC: 6.25 µg/mL (≈ 38.1 µM)
Reticulitermes speratus [7]
  mortality: 100%
Reticulitermes speratus [8]
  mortality: 13.3%
Legionella pneumophila [9]
  MIC: 25 µg/mL (≈ 152 µM)
Thanatephorus cucumeris
  MIC: 12 µg/mL (≈ 73.1 µM)
Pythium aphanidermatum
  MIC: 12 µg/mL (≈ 73.1 µM)
Dermatophagoides farinae [38]
  mortality: 2.6%
[39]
  IC50: 0.3 µg/mL (≈ 1.83 µM)
Reticulitermes speratus [13]
  mortality: 100%
Reticulitermes speratus [15]
  mortality: 100%
Reticulitermes speratus [16]
  mortality: 0%
[40]
  IC50: 0.3 µg/mL (≈ 1.83 µM)
Botrytis cinerea
  MIC: 50 µg/mL (≈ 304 µM)
Reticulitermes speratus [17]
  mortality: 100%
Reticulitermes speratus [18]
  mortality: 0%
Reticulitermes speratus [20]
  LC50: 0.03 g/m2
Phomopsis obscurans
  MIC: 12 µg/mL (≈ 73.1 µM)
Reticulitermes speratus [21]
  mortality: 100%
Colletotrichum lagenaria
  MIC: 25 µg/mL (≈ 152 µM)
Fusarium solani
  MIC: 50 µg/mL (≈ 304 µM)
MDCK
  MIC: 10 µg/mL (≈ 60.9 µM)
Reticulitermes speratus [22]
  mortality: 100%
K562
  IC50: 0.3 µg/mL (≈ 1.83 µM)
Dermatophagoides farinae [23]
  mortality: 99%
Colon 26
  MIC: 10 µg/mL (≈ 60.9 µM)
Reticulitermes speratus [24]
  mortality: 100%
[25]
  MIC: 25 µg/mL (≈ 152 µM)
[41]
  IC50: 0.3 µg/mL (≈ 1.83 µM)
Reticulitermes speratus [26]
  mortality: 0%
Dermatophagoides farinae [42]
  mortality: 11.9%
HL-60
  IC50: 0.3 µg/mL (≈ 1.83 µM)

## O=c1cccccc1O [TROPOLONE]
[39]
  IC50: 0.3 µg/mL (≈ 2.46 µM)
[40]
  IC50: 0.3 µg/mL (≈ 2.46 µM)
K562
  IC50: 0.3 µg/mL (≈ 2.46 µM)
[41]
  IC50: 0.3 µg/mL (≈ 2.46 µM)
HL-60
  IC50: 0.3 µg/mL (≈ 2.46 µM)

## CC[C@]1(O)C[C@@H]2CN(CCc3c([nH]c4ccccc34)[C@@](C(=O)OC)(c3cc4c(cc3OC)N(C)[C@H]3[C@@](O)(C(=O)OC)[C@H](OC(C)=O)[C@]5(CC)C=CCN6CC[C@]43[C@@H]65)C2)C1 [VINBLASTINE]
P388 [12]
  inhibition of growth at 0.63 µg/mL: 84%

Reference: ChEMBL document CHEMBL3044692, “Biological activity of alpha-thujaplicin, the isomer of hinokitiol” (Biol Pharm Bull, 2004)
